Measured values taken from US20240287138A1, “CYCLIC PEPTIDES FOR INHIBITING TNF RECEPTOR 1 ACTIVITY” (Merck Sharp & Dohme LLC, priority 2023, published 2024).
Numbered stars: 1 amine (or outer) side, 2 acyl side, 3 side chain; on linkers, the order of the positions; unused ones are H or OH. Bridge positions count the residues as written; N and C are the ends. Square brackets hold non-standard residues; d marks the D form. Peptide text beside a SMILES is read from it. * marks the point of attachment. Trp(βS-Me,7-OMe) = COc1cccc2c([C@H](C)[C@H](N)C(=O)O)c[nH]c12; X44 = NC(=O)c1ccc([C@@H](O)[C@H](N[*:1])C(=O)[*:2])cc1; Phe(4-SO2NH2) = N[C@@H](Cc1ccc(S(N)(=O)=O)cc1)C(=O)O; dPro(trans-4-NMe2) = CN(C)[C@@H]1CN[C@@H](C(=O)O)C1; Ala(indazol-1-yl) = N[C@@H](Cn1ncc2ccccc21)C(=O)O; Trp(7-CN) = N#Cc1cccc2c(C[C@H](N)C(=O)O)c[nH]c12; Trp(7-Cl) = N[C@@H](Cc1c[nH]c2c(Cl)cccc12)C(=O)O; X8 = O=C([C@@H]1C[C@@H](O)[C@H](N[*:1])C1)[*:2]; Phe(4-CONH2) = NC(=O)c1ccc(C[C@H](N)C(=O)O)cc1; Phe(4-COOH) = N[C@@H](Cc1ccc(C(=O)O)cc1)C(=O)O; Trp(7-aza) = N[C@@H](Cc1c[nH]c2ncccc12)C(=O)O; Phe(4-CH2NH2) = NCc1ccc(C[C@H](N)C(=O)O)cc1; Pip(5R-OH) = O=C(O)[C@@H]1CC[C@@H](O)CN1; X1 = O=C([C@@H]1CC[C@H](N[*:1])C1)[*:2]; X38 = CC(C)(CO)CN(CC(=O)[*:2])[*:1]; Pip(4-aza) = O=C(O)[C@@H]1CNCCN1; 4Pal = N[C@@H](Cc1ccncc1)C(=O)O; NMeE = CN[C@@H](CCC(=O)O)C(=O)O; dHyp = O=C(O)[C@H]1C[C@H](O)CN1; Pip = O=C(O)[C@@H]1CCCCN1; αMeS = C[C@](N)(CO)C(=O)O; Carboxymethyl = O=C(O)C*; Nle = CCCC[C@H](N)C(=O)O; Nme = COCCNCC(=O)O; Sar = CNCC(=O)O

Key:
human TNFR2 ECD protein = molecular target: T1, human TNFR2 ECD protein (Homo sapiens, UniProt P20333); assay: SPR off-target binding (selectivity) to human TNFR2 ECD
T1 construct: HRV 3C protease cleavage site (C); 6His (C, cleaved yes); made in house; host or cells: Sf21 insect cells (baculovirus), secreted
T1 sequence (P20333 23-257): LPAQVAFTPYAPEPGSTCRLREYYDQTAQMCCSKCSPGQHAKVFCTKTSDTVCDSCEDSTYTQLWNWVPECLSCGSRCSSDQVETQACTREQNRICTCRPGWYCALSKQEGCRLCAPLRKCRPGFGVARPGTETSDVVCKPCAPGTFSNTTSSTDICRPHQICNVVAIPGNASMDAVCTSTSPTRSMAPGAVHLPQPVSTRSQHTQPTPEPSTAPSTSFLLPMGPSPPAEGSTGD
Description: B. Procedure for Binding Affinity and Selectivity measured by SPR
Affinity and selectivity for hTNFR1 and TNFR2 was determined using SPR. Human TNFR1 or TNFR2 genes (extracellular domain only) were synthesized with a C-terminal Avi-tag, HRV 3C protease cleavage site followed by a 6His-tag for affinity purification. The final gene product was cloned into pBAC™-1 vector (Millipore Sigma) for expression testing in insect cells. Constructs were transfected into Sf21 cells for baculovirus generation followed by protein expression analysis in Sf21 and Tni cell lines. Large scale expression in Sf21 cells was performed using baculovirus infected insect cells (BIICs) infected at a MOI=2.0 grown for 72 h. Target proteins secreted into the media were harvested via centrifugation and concentrated using diafiltration. TNFR was purified by immobilized metal ion affinity chromatography (IMAC) using a Ni-Sepharose HisTrap™ column (Cytiva™). Isolated TNFR had His tag removed using HRV 3C protease followed by additional purification using Ni-NTA chromatography. Biotinylation was performed on Ni-NTA flow-through fractions concentrated to 45 μM and treated with BirA ligase (1:100, μg/μg ratio) in 50 mM Tris pH 7.5, 150 mM NaCl, 50 μM biotin, 10 mM magnesium acetate, 10 mM ATP at 4° C. for 20 h. Final purification of biotin-TNFR and buffer exchange into 20 mM HEPES pH 7.5, 150 mM NaCl was performed using a HiLoad® Superdex® 200 26/60 column (Cytiva™). Highly purified protein was aliquoted and stored at −80° C.
The SPR assay uses a Cytiva™ 8K or 8K+ biosensor instrument to measure the kinetics of peptide analytes binding to captured human TNFR1 extracellular domain (ECD) protein; peptide analytes are also evaluated for any off-target binding to human TNFR2 ECD protein in parallel. Recombinant human TNFR1 ECD and human TNFR2 ECD proteins, biotinylated via engineered C-terminal avi-tags, are immobilized to a regenerable streptavidin biosensor chip surface (Cytiva™ Biotin CAPture kit, Series S; cat. #28920234). Peptide analytes binding to immobilized human TNFR1 ECD protein and their subsequent dissociation are conducted in a buffer of 10 mM HEPES pH 7.4, 150 mM NaCl, 3 mM EDTA, 0.05% P20,2% DMSO under laminar flow conditions and measured in response units (RU), which are directly proportional to the accumulated mass on the surface of the biosensor chip; the biosensor chip surface is regenerated via Cytiva™ proprietary methods between the evaluation of each peptide analyte. […] The SPR assay determines the association and dissociation rate constants, kon and koff, for each peptide analyte and, from these values, calculates the binding affinity, […] reported in Table 2.

[1] = molecular target: T2, TNFα-induced NF-κB signal transduction pathway (TNFR1 signaling) in THP-1 cells (Homo sapiens, UniProt P19438); assay: THP-1 Lucia NF-κB reporter cell assay, inhibition of TNFα-induced NF-κB signaling; format: cell-based; settings: THP-1 NF-κB Lucia reporter cells, 10 ng/mL TNFα, 16-18 h, secreted luciferase; read-out: THP-1 IC50
T2 sequence (P19438 30-455): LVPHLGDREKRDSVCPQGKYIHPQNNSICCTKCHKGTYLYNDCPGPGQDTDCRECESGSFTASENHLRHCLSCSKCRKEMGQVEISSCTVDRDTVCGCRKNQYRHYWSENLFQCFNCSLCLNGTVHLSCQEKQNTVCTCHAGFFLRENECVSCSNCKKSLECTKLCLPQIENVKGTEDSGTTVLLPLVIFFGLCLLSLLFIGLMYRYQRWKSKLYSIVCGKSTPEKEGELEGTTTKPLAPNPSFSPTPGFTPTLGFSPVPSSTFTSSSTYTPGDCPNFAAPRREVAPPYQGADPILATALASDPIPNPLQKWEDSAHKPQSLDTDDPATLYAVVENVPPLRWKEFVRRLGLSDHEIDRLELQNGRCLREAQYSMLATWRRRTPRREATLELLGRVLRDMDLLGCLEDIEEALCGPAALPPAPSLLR
Summary of the method: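 Read-out: secreted Lucia luciferase luminescence (QUANTI-Luc) from supernatant after 16-18 h, 37 °C, 10 ng/mL rhTNFα. Peptide pretreatment 1 h at 37 °C; 20,000 cells/well, selection antibiotics omitted. IC50 via 4-parameter logistic model against min/max controls.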

[2] = molecular target: T3, human soluble TNFR1 (sTNFR1) (Homo sapiens, UniProt P19438); assay: Human sTNFR1-peptide displacement assay (LanthaScreen Eu TR-FRET binding assay)
T3 construct: made in house; host or cells: Sf21 (baculovirus)
T3 sequence (P19438 with tags, fused parts or gaps): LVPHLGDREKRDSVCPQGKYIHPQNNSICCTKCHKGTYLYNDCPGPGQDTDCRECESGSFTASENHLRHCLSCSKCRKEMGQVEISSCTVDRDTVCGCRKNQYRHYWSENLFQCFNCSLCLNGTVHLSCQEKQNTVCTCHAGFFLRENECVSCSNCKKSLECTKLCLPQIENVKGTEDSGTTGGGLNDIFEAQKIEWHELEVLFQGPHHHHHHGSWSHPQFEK
Summary of the method: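 Readout is the 665/615 nm TR-FRET ratio (Eu anti-His donor, streptavidin-Alexa647 acceptor), normalized to DMSO and saturating displacer, fit by Morrison-based five-parameter logistic for Kd^app. His-tagged sTNFR1 (1-211) prebound to 100 nM biotinylated peptide SEQ ID NO.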

| Structure (SMILES) | Kd (human TNFR2 ECD protein) [nM] | IC50 [1] [nM] | Kd [2] [nM] |
| --- | --- | --- | --- |
| CCCC[C@@H]1NC(=O)[C@@H]2C[C@@H](O)[C@@H](C2)NC(=O)[C@H]([C@@H](C)c2c[nH]c3c(OC)cccc23)NC(=O)CN(C)C(=O)[C@H](Cc2ccc(O)cc2)NC(=O)[C@H](Cc2ccc(C(=O)O)cc2)NC(=O)[C@](C)(CO)NC(=O)[C@H](Cc2c[nH]c3c(Cl)cccc23)NC(=O)[C@H](Cc2ccncc2)NC(=O)[C@H](CC(N)=O)NC(=O)[C@H](CCC(=O)O)N(C)C(=O)[C@H](Cc2c[nH]c3ccccc23)NC(=O)[C@@H]2CNCCN2C(=O)[C@H](Cc2ccncc2)NC1=O [SEQ ID NO. 34] (cyclo([4Pal][Trp(7-Cl)][αMeS][Phe(4-COOH)]Y[Sar][Trp(βS-Me,7-OMe)][X8][Nle][4Pal][Pip(4-aza)]W[NMeE]N)) | > 1000 | 0.7 | – |
| CCCC[C@@H]1NC(=O)CSC[C@@H](C(N)=O)NC(=O)[C@H]([C@@H](C)c2c[nH]c3c(OC)cccc23)NC(=O)CN(C)C(=O)[C@H](Cc2ccc(O)cc2)NC(=O)[C@H](Cc2ccc(C(=O)O)cc2)NC(=O)[C@](C)(CO)NC(=O)[C@H](Cc2c[nH]c3c(Cl)cccc23)NC(=O)[C@H](Cc2ccncc2)NC(=O)[C@H](CC(N)=O)NC(=O)CN(CC(C)(C)CO)C(=O)[C@H](Cc2c[nH]c3ncccc23)NC(=O)[C@@H]2CCCCN2C(=O)[C@H](Cc2ccncc2)NC1=O [SEQ ID NO. 61] ({CH2CO}-[Nle][4Pal][Pip][Trp(7-aza)][X38]N[4Pal][Trp(7-Cl)][αMeS][Phe(4-COOH)]Y[Sar][Trp(βS-Me,7-OMe)]C-NH2; thioether N-14) | > 1000 | 3.6 | – |
| CCCC[C@@H]1NC(=O)CSC[C@@H](C(N)=O)NC(=O)[C@H]([C@@H](C)c2c[nH]c3c(OC)cccc23)NC(=O)CN(C)C(=O)[C@H](Cc2ccc(O)cc2)NC(=O)[C@H](Cc2ccc(C(=O)O)cc2)NC(=O)[C@](C)(CO)NC(=O)[C@H](Cc2c[nH]c3c(Cl)cccc23)NC(=O)[C@H](Cc2ccncc2)NC(=O)[C@H](CC(N)=O)NC(=O)CN(CCOC)C(=O)[C@H](Cc2c[nH]c3ncccc23)NC(=O)[C@@H]2CCCCN2C(=O)[C@H](Cc2ccncc2)NC1=O [SEQ ID NO. 62] ({CH2CO}-[Nle][4Pal][Pip][Trp(7-aza)][Nme]N[4Pal][Trp(7-Cl)][αMeS][Phe(4-COOH)]Y[Sar][Trp(βS-Me,7-OMe)]C-NH2; thioether N-14) | > 1000 | 4.4 | – |
| CCCC[C@@H]1NC(=O)CSC[C@@H](C(N)=O)NC(=O)[C@H]([C@@H](C)c2c[nH]c3c(OC)cccc23)NC(=O)CN(C)C(=O)[C@H](Cc2ccc(O)cc2)NC(=O)[C@H](Cc2ccc(C(=O)O)cc2)NC(=O)[C@](C)(CO)NC(=O)[C@H](Cc2c[nH]c3c(Cl)cccc23)NC(=O)[C@H](Cc2ccc(CN)cc2)NC(=O)[C@H](CC(N)=O)NC(=O)[C@H](CCC(=O)O)N(C)C(=O)[C@H](Cc2c[nH]c3ccccc23)NC(=O)[C@@H]2CC[C@@H](O)CN2C(=O)[C@H](Cc2ccncc2)NC1=O [SEQ ID NO. 96] ({CH2CO}-[Nle][4Pal][Pip(5R-OH)]W[NMeE]N[Phe(4-CH2NH2)][Trp(7-Cl)][αMeS][Phe(4-COOH)]Y[Sar][Trp(βS-Me,7-OMe)]C-NH2; thioether N-14) | > 1000 | 1.6 | – |
| CCCC[C@@H]1NC(=O)[C@@H]2CC[C@@H](C2)NC(=O)[C@H]([C@@H](C)c2c[nH]c3c(OC)cccc23)NC(=O)CN(C)C(=O)[C@H](Cc2ccc(OCC(=O)O)cc2)NC(=O)[C@H](Cc2ccc(C(N)=O)cc2)NC(=O)[C@](C)(CO)NC(=O)[C@H](Cc2c[nH]c3c(C#N)cccc23)NC(=O)[C@H](Cc2ccc(OCC(=O)O)cc2)NC(=O)[C@H](CC(N)=O)NC(=O)[C@H]2C[C@H](O)CN2C(=O)[C@H](Cc2c[nH]c3ccccc23)NC(=O)[C@@H]2CC[C@@H](O)CN2C(=O)[C@H](Cc2ccncc2)NC1=O [SEQ ID NO. 285] (cyclo([4Pal][Pip(5R-OH)]W[dHyp]NY(Carboxymethyl)[Trp(7-CN)][αMeS][Phe(4-CONH2)]Y(Carboxymethyl)[Sar][Trp(βS-Me,7-OMe)][X1][Nle])) | – | 0.6 | 0.04 |
| CCCC[C@@H]1NC(=O)[C@@H]2CC[C@@H](C2)NC(=O)[C@H]([C@@H](C)c2c[nH]c3c(OC)cccc23)NC(=O)CN(C)C(=O)[C@H](Cc2ccc(OCC(=O)O)cc2)NC(=O)[C@H](Cc2ccc(S(N)(=O)=O)cc2)NC(=O)[C@](C)(CO)NC(=O)[C@H](Cc2c[nH]c3c(C#N)cccc23)NC(=O)[C@H](Cc2ccc(OCC(=O)O)cc2)NC(=O)[C@H](CC(N)=O)NC(=O)[C@H]2C[C@H](O)CN2C(=O)[C@H](Cn2ncc3ccccc32)NC(=O)[C@@H]2CC[C@@H](O)CN2C(=O)[C@H](Cc2ccncc2)NC1=O [SEQ ID NO. 286] (cyclo([4Pal][Pip(5R-OH)][Ala(indazol-1-yl)][dHyp]NY(Carboxymethyl)[Trp(7-CN)][αMeS][Phe(4-SO2NH2)]Y(Carboxymethyl)[Sar][Trp(βS-Me,7-OMe)][X1][Nle])) | – | 0.4 | 0.05 |
| CCCC[C@@H]1NC(=O)[C@@H]2CC[C@@H](C2)NC(=O)[C@H]([C@@H](C)c2c[nH]c3c(OC)cccc23)NC(=O)CN(C)C(=O)[C@H]([C@H](O)c2ccc(C(N)=O)cc2)NC(=O)[C@H](Cc2ccc(C(=O)O)cc2)NC(=O)[C@](C)(CO)NC(=O)[C@H](Cc2c[nH]c3c(C#N)cccc23)NC(=O)[C@H](Cc2ccc(C(=O)O)cc2)NC(=O)[C@H](CC(N)=O)NC(=O)[C@H]2C[C@H](N(C)C)CN2C(=O)[C@H](Cc2c[nH]c3ncccc23)NC(=O)[C@@H]2CNCCN2C(=O)[C@H](Cc2ccncc2)NC1=O [SEQ ID NO. 287] (cyclo([4Pal][Pip(4-aza)][Trp(7-aza)][dPro(trans-4-NMe2)]N[Phe(4-COOH)][Trp(7-CN)][αMeS][Phe(4-COOH)][X44][Sar][Trp(βS-Me,7-OMe)][X1][Nle])) | – | 1.7 | 0.22 |
